Assay results published in PMC11562704, “Volatiles extracted from Melaleuca Rugulosa (Link) Craven leaves: comparative profiling, bioactivity screening, and metabolomic analysis” (BMC Complementary Medicine and Therapies, 2024).
Converted amounts (≈) assume the structure as drawn.

Target: T1, Type 1 collagenase enzyme
T1 construct: gene colG; native collagenase preparation isolated from the bacterium; type 1 is normally a mixture of ColG and ColH
Test: FALGPA hydrolysis, ninhydrin absorbance at […] nm
Type: biochemical, Hathewaya histolytica
Details: FALGPA substrate; 50 mM tricine pH 7.4; 37 °C; 20 min preincubation

## O=C(O)CN(CCN(CC(=O)O)CC(=O)O)CC(=O)O [EDTA]
  IC50 ± SD (inhibition percentage (IP) ± SD) / Anti-collagenase: 315.12 ± 2.21 µg/mL (≈ 1080 µM)
